For 20 molecules, IC50 results are on record in US8518945B2, “Pyrrolopyrazine kinase inhibitors” (Hoffmann-La Roche Inc., priority 2010, dated 2013).

The target in this test is T1, h-jak3(810-1124) (JAK3: Recombinant human kinase domain) (Homo sapiens, UniProt P52333).
T1 construct: jak3(810- 1124)-sf9-c; made in house; host or cells: Sf9
Kind of test: Determination of IC50 of Janus Kinase (JAK) inhibition: JAK3 radioactive end-point 33P-ATP kinase assay. The test is classed as biochemical. The settings on record: no additive; ATP 1.5 uM, peptide 50 uM, 20 minutes, room temperature; read-out: Ic50 h-jak3(810-1124)-sf9-c: no additive.

As a reminder, the IC50 is the concentration that inhibits the measured activity by half.

Structures are written as SMILES.

T1 sequence (P52333 810-1124): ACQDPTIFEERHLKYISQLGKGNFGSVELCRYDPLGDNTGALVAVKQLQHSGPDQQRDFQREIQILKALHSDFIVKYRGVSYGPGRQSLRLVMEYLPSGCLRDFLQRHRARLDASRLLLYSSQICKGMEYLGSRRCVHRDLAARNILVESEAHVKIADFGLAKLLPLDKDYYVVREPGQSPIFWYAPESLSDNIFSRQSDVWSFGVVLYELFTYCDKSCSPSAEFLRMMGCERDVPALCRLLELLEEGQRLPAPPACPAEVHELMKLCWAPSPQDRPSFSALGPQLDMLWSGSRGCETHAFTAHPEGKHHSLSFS
Source text: Determination of IC50 of Janus Kinase (JAK) Inhibition:
Enzymes and peptide substrate used are described below: • JAK1: Recombinant human kinase domain from Invitrogen (Cat # PV4774) • JAK3: Recombinant human kinase domain from Millipore (Cat # 14-629) or prepared. • JAK2: Recombinant human kinase domain from Millipore (Cat # 14-640) • Substrate: N-terminally biotinylated 14-mer peptide derived from activation loop of JAK1 with sequence of the peptide substrate: Biotin-[sequence]
Assay conditions— used are described below: • Assay Buffer: JAK Kinase Buffer: 50 mM Hepes [pH 7.2], 10 mM MgCl2, 1 mM DTT, 1 mg/ml BSA. The assay was carried out in this buffer. • Assay Format The kinase activity of all three JAK kinases was measured using a radioactive, end-point assay and with trace amounts of ^33P-ATP. The assays were carried out in 96-well polypropylene plates. Experimental Method:
All concentrations were final in the reaction mixture and all incubations were carried at room temperature. […] Final concentration of DMSO in the reaction was 10%. • 2) Compounds were preincubated with enzyme (0.5 nM JAK3 (commercially available), 0.2 nM JAK3 (prepared), 1 nM JAK2, 5 nM JAK1) for 10 minutes. • 3) Reactions were initiated by the addition of a cocktail of the two substrates (ATP and peptide premixed in the JAK Kinase Buffer). In the JAK2/JAK3 assays, ATP and the peptide were used at concentrations of 1.5 uM and 50 uM, respectively. JAK1 assay was carried out at an ATP concentration of 10 uM and a peptide concentration of 50 uM. • 4) The duration of the assay for JAK2 and JAK3 is 20 minutes. JAK1 assay was carried out for 40 minutes. With all three enzymes, reactions were terminated by the addition of 0.5M EDTA to a final concentration of 100 mM. • 5) 25 ul of terminated reactions were transferred to 150 ul of a 7.5% (v/v) slurry of streptavidin-coated sepharose beads in MgCl2- and CaCl2-free 1× Phosphate Buffered Saline containing 50 mM of EDTA in 96-well, 1.2 um MultiScreen-BV filter plates. • 6) After a 30-minute incubation, the beads were washed under vacuum with the following buffers: • a. 3 to 4 washes with 200 ul of 2M NaCl. • b. 3 to 4 washes with 200 ul of 2M NaCl plus 1% (v/v) phosphoric acid. • c. 1 wash with water. • 7) Washed plates were dried in a 60° C. oven for between 1 to 2 hours. • 8) 70 ul of Microscint 20 scintillation fluid was added to each well of filter plates and after at least 30 minutes of incubation, radioactive counts were measured in a Perkinelmer microplate scintillation counter.

For `CC(C)(C)[C@@H](NC(=O)c1c[nH]c2ncc(C3CC3)nc12)C(=O)N1CC[C@@H](C#N)C1` [Example I-31, 2-Cyclopropyl-5H-pyrrolo[2,3-b]pyrazine-7-carboxylic acid [(R)-1-((R)-3-cyano-pyrrolidine-1-carbonyl)-2,2-dimethyl-propyl]-amide], the IC50 came out at 0.8 nM.

In the case of `Cn1cc(-c2cnc3[nH]cc(C(=O)N[C@@H](C(=O)N4CC5(COC5)C4)C4CC4)c3n2)cn1` [Example I-85, 2-(1-Methyl-1H-pyrazol-4-yl)-5H-pyrrolo[2,3-b]pyrazine-7-carboxylic acid [(R)-1-cyclopropyl-2-(2-oxa-6-aza-spiro[3.3]hept-6-yl)-2-oxo-ethyl]-amide], the IC50 was determined as 0.85 nM.

Regarding `CCn1cc(-c2cnc3[nH]cc(C(=O)N[C@@H](C(=O)N4CCC(F)(F)C4)C4CC4)c3n2)cn1` [Example I-139, 2-(1-Ethyl-1H-pyrazol-4-yl)-5H-pyrrolo[2,3-b]pyrazine-7-carboxylic acid [(R)-1-cyclopropyl-2-(3,3-difluoro-pyrrolidin-1-yl)-2-oxo-ethyl]-amide], the IC50 was not above 0.32 nM.

On to `CC1CCCN1C(=O)[C@@H](C)NC(=O)c1c[nH]c2ncc(C3CC3)nc12` (stereo partly drawn) [Example I-16, 2-Cyclopropyl-5H-pyrrolo[2,3-b]pyrazine-7-carboxylic acid [(R)-1-methyl-2-(2-methyl-pyrrolidin-1-yl)-2-oxo-ethyl]-amide], for which the IC50 was 72.5 nM.

On to `Cc1nc(-c2cnc3[nH]cc(C(=O)N[C@@H](C(=O)N4CC(C#N)C4)C4CC4)c3n2)cn1-c1ccccc1` [Example I-159, 2-(2-Methyl-1-phenyl-1H-imidazol-4-yl)-5H-pyrrolo[2,3-b]pyrazine-7-carboxylic acid [(R)-2-(3-cyano-azetidin-1-yl)-1-cyclopropyl-2-oxo-ethyl]-amide], for which the IC50 turned out to be 2.66 nM.

Turning to `N#CC1CCN(C(=O)[C@H](NC(=O)c2c[nH]c3ncc(-c4cn(-c5ccccc5)nn4)nc23)C2CC2)CC1` [Example I-108, 2-(1-Phenyl-1H-[1,2,3]triazol-4-yl)-5H-pyrrolo[2,3-b]pyrazine-7-carboxylic acid [(R)-2-(4-cyano-piperidin-1-yl)-1-cyclopropyl-2-oxo-ethyl]-amide], the IC50 is 6.05 nM.

In the case of `CC(C)[C@@H](NC(=O)c1c[nH]c2ncc(C3CC3)nc12)C(=O)N1CCCC1` [Example I-4, 2-Cyclopropyl-5H-pyrrolo[2,3-b]pyrazine-7-carboxylic acid [(R)-2-methyl-1-(pyrrolidine-1-carbonyl)-propyl]-amide], the IC50 was determined as 4.86 nM.

`CC(C)(C)[C@@H](NC(=O)c1c[nH]c2ncc(C3CC3)nc12)C(=O)N1CCCC(C#N)C1` (stereo partly drawn) [Example I-29, 2-Cyclopropyl-5H-pyrrolo[2,3-b]pyrazine-7-carboxylic acid [(R)-1-(3-cyano-piperidine-1-carbonyl)-2,2-dimethyl-propyl]-amide]: the IC50 amounted to 13.6 nM.

For `CC(C)(C)[C@@H](NC(=O)c1c[nH]c2ncc(-c3cn(C4CCCC4)cn3)nc12)C(=O)N1CCC(C#N)CC1` [Example I-120, 2-(1-Cyclopentyl-1H-imidazol-4-yl)-5H-pyrrolo[2,3-b]pyrazine-7-carboxylic acid [(R)-1-(4-cyano-piperidine-1-carbonyl)-2,2-dimethyl-propyl]-amide], the IC50 turned out to be 3.7 nM.

Take `CC(C)(C)[C@@H](NC(=O)c1c[nH]c2ncc(OC3CCCCC3)nc12)C(=O)N1CCC(C#N)CC1` [Example I-90, 2-Cyclohexyloxy-5H-pyrrolo[2,3-b]pyrazine-7-carboxylic acid [(R)-1-(4-cyano-piperidine-1-carbonyl)-2,2-dimethyl-propyl]-amide]: the IC50 was determined as 9.73 nM.

As to `CC(C)(C)c1ccnc(-c2cnc3[nH]cc(C(=O)N[C@@H](C(=O)N4CCC(C#N)CC4)C4CC4)c3n2)c1` [Example I-145, 2-(4-tert-Butyl-pyridin-2-yl)-5H-pyrrolo[2,3-b]pyrazine-7-carboxylic acid [(R)-2-(4-cyano-piperidin-1-yl)-1-cyclopropyl-2-oxo-ethyl]-amide], the IC50 was 15.2 nM.

For `N#CC1CCN(C(=O)[C@H](NC(=O)c2c[nH]c3ncc(-c4cc(OCC5CC5)ccn4)nc23)C2CC2)CC1` [Example I-129, 2-(4-Cyclopropylmethoxy-pyridin-2-yl)-5H-pyrrolo[2,3-b]pyrazine-7-carboxylic acid [(R)-2-(4-cyano-piperidin-1-yl)-1-cyclopropyl-2-oxo-ethyl]-amide], the IC50 amounted to 1.18 nM.

For `CC(C)(C)[C@@H](NC(=O)c1c[nH]c2ncc(C3CC3)nc12)C(=O)N1CCCCC1` [Example I-32, 2-Cyclopropyl-5H-pyrrolo[2,3-b]pyrazine-7-carboxylic acid [(R)-2,2-dimethyl-1-(piperidine-1-carbonyl)-propyl]-amide], the IC50 amounted to 0.98 nM.

Turning to `CN(C)c1ccc(-c2cnc3[nH]cc(C(=O)N[C@@H](C(=O)N4CC(C#N)C4)C4CC4)c3n2)cc1` [Example I-164, 2-(4-Dimethylamino-phenyl)-5H-pyrrolo[2,3-b]pyrazine-7-carboxylic acid [(R)-2-(3-cyano-azetidin-1-yl)-1-cyclopropyl-2-oxo-ethyl]-amide], the IC50 was not above 0.32 nM.

For the molecule `N#CC1CN(C(=O)[C@H](NC(=O)c2c[nH]c3ncc(-c4cc5nccc(OCC(F)(F)F)c5s4)nc23)C2CC2)C1` [Example I-98, 2-[7-(2,2,2-Trifluoro-ethoxy)-thieno[3,2-b]pyridin-2-yl]-5H-pyrrolo[2,3-b]pyrazine-7-carboxylic acid [(R)-2-(3-cyano-azetidin-1-yl)-1-cyclopropyl-2-oxo-ethyl]-amide], the IC50 is 2.16 nM.

For the molecule `CC(C)(C)[C@@H](NC(=O)c1c[nH]c2ncc(OCC(F)(F)F)nc12)C(=O)N1CCC(C#N)CC1` [Example I-93, 2-(2,2,2-Trifluoro-ethoxy)-5H-pyrrolo[2,3-b]pyrazine-7-carboxylic acid [(R)-1-(4-cyano-piperidine-1-carbonyl)-2,2-dimethyl-propyl]-amide], the IC50 amounted to 16.4 nM.

Consider `O=C(N[C@@H](C(=O)N1CCCC1)C1CCCC1)c1c[nH]c2ncc(C3CC3)nc12` [Example I-26, 2-Cyclopropyl-5H-pyrrolo[2,3-b]pyrazine-7-carboxylic acid ((R)-1-cyclopentyl-2-oxo-2-pyrrolidin-1-yl-ethyl)-amide], for which the IC50 turned out to be 3.98 nM.

Take `C[C@@H](NC(=O)c1c[nH]c2ncc(-c3cc4nccc(N5CCCC5)c4s3)nc12)C(=O)N1CC(C#N)C1` [Example I-101, 2-(7-Pyrrolidin-1-yl-thieno[3,2-b]pyridin-2-yl)-5H-pyrrolo[2,3-b]pyrazine-7-carboxylic acid [(R)-2-(3-cyano-azetidin-1-yl)-1-methyl-2-oxo-ethyl]-amide]: the IC50 was 37 nM.

As for `Cn1cc(-c2cnc3[nH]cc(C(=O)N[C@@H](C(=O)N4CC(C)(C#N)C4)C(C)(C)C)c3n2)cn1` [Example I-143, 2-(1-Methyl-1H-pyrazol-4-yl)-5H-pyrrolo[2,3-b]pyrazine-7-carboxylic acid [(R)-1-(3-cyano-3-methyl-azetidine-1-carbonyl)-2,2-dimethyl-propyl]-amide], the IC50 was 0.42 nM.

For `CC(C)(C)[C@@H](NC(=O)c1c[nH]c2ncc(C3CC3)nc12)C(=O)N1CCC(C#N)CC1` [Example I-35, 2-Cyclopropyl-5H-pyrrolo[2,3-b]pyrazine-7-carboxylic acid [(R)-1-(4-cyano-piperidine-1-carbonyl)-2,2-dimethyl-propyl]-amide], the IC50 stood at 0.68 nM.
